Measurements published in article PMC11623267, “Inhibitors of malaria parasite cyclic nucleotide phosphodiesterases block asexual blood-stage development and mosquito transmission” (Science Advances, 2024).

Assays:
[1] = test system: P. falciparum stage IV/V gametocytes; assay: LDH-based gametocyte viability assay; type: cell-based, Plasmodium falciparum; settings: stage IV to V gametocytes
Procedure, shortened: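 Late gametocytes (>95% stage IV/V) at 2% gametocytemia and 1% hematocrit, exposed to compound in triplicate for 72 h at 37°C, then 75% medium change to drug-free medium and another 72 h. Viability from pLDH activity with Malstat reagent (pH 9) plus PES/NBT, absorbance at 620 nm.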

[2] = test system: P. falciparum stage V gametocytes (male gamete formation); assay: Exflagellation (male gamete formation) inhibition assay; type: cell-based, Plasmodium falciparum; settings: for IC50: 48 hours exposure
Procedure, shortened: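 Mature stage V gametocytes (>95%) treated with compound for 48 h (2 μM single point, or fourfold serial dilutions), then exflagellation induced in ookinete medium with 100 μM XA and 20% human serum, compound still present. Exflagellation centres counted by video microscopy at room temperature between 15 and 22.5 min; IC50 from curves normalised to maximum and minimum inhibition.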

[3] = test system: P. falciparum stage V gametocytes (female gamete formation); assay: Female gamete formation inhibition assay; type: cell-based, Plasmodium falciparum; settings: for IC50: 48 hours exposure
Procedure, shortened: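 P. falciparum gametocytes (>95% stage V) were treated for 48 h with compound at 2 μM or in a fourfold dilution series. Female gamete formation was then triggered by a temperature drop plus 100 μM xanthurenic acid. Gametes were detected with FITC-anti-Pfs25, 30 images per sample were counted manually, and IC50 was fitted after normalisation to maximum and minimum inhibition.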

[4] = test system: P. falciparum NF54 gametocytes fed to Anopheles stephensi; assay: Initial SMFA and sporozoite production; type: in vivo, Plasmodium falciparum; settings: for Oocyst and sporozoite formation: 0.5 and 1 μM
Procedure: P. falciparum NF54 gametocytes were prepared for blood-feeding to mosquitoes according to the method described ([57]), with some slight modifications. Briefly, gametocyte cultures seeded at 2% overall parasitemia and 4% hematocrit were maintained at 37°C for 16 days with daily medium changes. Gametocyte functional viability was assessed by an exflagellation assay at day 14 after induction, observed by light microscopy. Anopheles stephensi (SD500 strain) were reared as described ([58]). Gametocyte aliquots from a single NF54 culture, produced as above, were incubated either with SAL-0010003 or SAL-0010042 in two separate experiments at 100 nM, 500 nM or 1 μM, 1 μM methylene blue (full-block control), or culture medium only (no-drug control) from day 14 to day 16 when SMFA was carried out. Fresh drug-containing medium was provided each day during this exposure. Pots containing 70 to 80 female A. stephensi mosquitoes, aged 2 to 5 days old, were allowed to feed on 500 μl of the respective culture plus drug mixture, presented to each pot in a preheated three-dimensional printed water channel membrane feeder ([59]), until fully fed. Mosquitoes were placed in an incubator at standard conditions. Seven to 8 days after the feed, 10 to 15 mosquitoes were removed and kept under standard conditions for salivary gland dissection on day 14 after feeding. The remaining mosquito midguts were dissected on day […] or day 7, respectively, after the feed in 0.25% mercurochrome stain to determine oocyst counts by light microscopy.

[5] = test system: P. falciparum mature stage V gametocytes; assay: Induction of gametogenesis; type: cell-based, Plasmodium falciparum; settings: 1× IC50, without XA or temperature drop
Procedure: Mature (>90% stage V) gametocytes were exposed to short-term treatment with two of the 5-benzyl series compounds, SAL-0010042 and SAL-0010003. In the absence of any other stressors (drop in temperature, pH increase, and XA), mature gametocytes were treated at 1× IC50 of either compound, and samples were taken at 15, 30, and 60 min. Giemsa-stained slides were prepared at these time points, and the parasite populations were evaluated morphologically using light microscopy. Male and female gametes were identified or distinguished on the basis of rounding up, shape, and size. Statistical evaluation was performed with paired, two-tailed t test (GraphPad Prism 6.0).

[6] = Plasmodium falciparum, 2 μM, 48 hours

In the case of `CC(C)c1[nH]nc2c(=O)[nH]c(Cc3ccccc3F)nc12` [SAL-0010042], the “% inhibition gametocyte viability at 15 μM” value [1] is reported as 99.6 ± 1.3%, the “% inhibition of exflagellation at 2 μM” value ([2]; 2 μM, 48 hours) is reported as 95.4 ± 18.0% and the IC50 [2] is reported as 386 nM. For the same molecule, the “% inhibition of female gamete formation at 2 μM” value ([3]; 2 μM, 48 hours) was 97.7 ± 0.4%, the IC50 [3] was 238 nM and the “Oocyst and sporozoite formation” value [4] was “Few or no oocysts or sporozoites”. The “Time to stimulate gametogenesis of mature stage V gametocytes” value [5] was no more than 15 min.
For `CC(C)c1n[nH]c2c(=O)[nH]c(Cc3ccc(F)cc3F)nc12` [SAL-0010003], the “% inhibition gametocyte viability at 15 μM” value [1] was 65.4 ± 20.3%, the inhibition at 2 µM [2, 6] was 88.4 ± 17% and the IC50 ([2]; Plasmodium falciparum) was 404 nM. For the same molecule, the inhibition at 2 µM [3, 6] was 71.3 ± 1.5%, the IC50 ([3]; Plasmodium falciparum) was 273 nM and the “Infection prevalence and intensity” value ([4]; 100 nM) was “reduced”. The “Oocyst and sporozoite formation” value [4] was “Few or no oocysts or sporozoites” and the “Time to stimulate gametogenesis of mature stage V gametocytes” value [5] was no more than 15 min.
